Results: ChEMBL document CHEMBL3885861, “Open TG-GATES”

Organism: Rattus norvegicus
Test: Open TG-GATES - Regimen: Single
Type: toxicity, organism-based, Sprague-Dawley
Set-up: regimen Single, gender Male, age 6 weeks
Conditions: in vivo, po, 0 mg/kg, route gavage, dose level Control; for APTT / Bas / Eos / Fbg / Hb / Ht / Lym / MCH / MCHC / MCV / Mono / Neu / PT / Plat / RBC / Ret / WBC: tissue Blood; for KIDNEY_L / KIDNEY_R / KIDNEY_TOTAL: tissue Kidney; for LIVER: tissue Liver; for A/G / ALP / ALT / AST / BUN / CRE / Ca / Cl / DBIL / GLC / IP / K / LDH / Na / PL / RALB / TBIL / TC / TG / TP / gamma-GTP: tissue Plasma

Compound: CN1C(=O)OC(C)(C)C1=O [TRIMETHADIONE]
- TERMINAL_BW (3 h): 205.3 g
- APTT (3 h): 17.8 s
- Bas (3 h): 0.2%
- Eos (3 h): 0.8%
- Fbg (3 h): 261 mg/dL
- Hb (3 h): 13.4 g/dL
- Ht (3 h): 40.1%
- Lym (3 h): 79.8%
- MCH (3 h): 21.8 pg
- MCHC (3 h): 33.5%
- MCV (3 h): 65.1 fL
- Mono (3 h): 3%
- Neu (3 h): 16%
- PT (3 h): 13.8 s
- Plat (3 h): 125.1 x10_4/uL
- RBC (3 h): 616.4 x10_4/ul
- Ret (3 h): 8.2%
- WBC (3 h): 86.1 x10_2/uL
- KIDNEY_L (3 h): 1 g
- KIDNEY_R (3 h): 0.9 g
- KIDNEY_TOTAL (3 h): 1.9 g
- LIVER (3 h): 9 g
- A/G (3 h): 0.9
- ALP (3 h): 1845.4 IU/L
- ALT (3 h): 43.8 IU/L
- AST (3 h): 85 IU/L
- BUN (3 h): 9.6 mg/dL
- CRE (3 h): 0.2 mg/dL
- Ca (3 h): 10.6 mg/dL
- Cl (3 h): 107.4 meq/L
- DBIL (3 h): 0.006 mg/dL
- GLC (3 h): 181.4 mg/dL
- IP (3 h): 8.9 mg/dL
- K (3 h): 4.2 meq/L
- LDH (3 h): 152 IU/L
- Na (3 h): 140.6 meq/L
- PL (3 h): 133.8 mg/dL
- RALB (3 h): 2.5 g/dL
- TBIL (3 h): 0.07 mg/dL
- TC (3 h): 72.2 mg/dL
- TG (3 h): 42.6 mg/dL
- TP (3 h): 5.3 g/dL
- gamma-GTP (3 h): 1.2 IU/L
- TERMINAL_BW (6 h): 205.6 g
- APTT (6 h): 18.9 s
- Bas (6 h): 0%
- Eos (6 h): 1%
- Fbg (6 h): 284.2 mg/dL
- Hb (6 h): 13.1 g/dL
- Ht (6 h): 39.6%
- Lym (6 h): 77.4%
- MCH (6 h): 21.4 pg
- MCHC (6 h): 33.2%
- MCV (6 h): 64.4 fL
- Mono (6 h): 2.4%
- Neu (6 h): 19%
- PT (6 h): 13.8 s
- Plat (6 h): 122.3 x10_4/uL
- RBC (6 h): 615.2 x10_4/ul
- Ret (6 h): 8.7%
- WBC (6 h): 78 x10_2/uL
- KIDNEY_L (6 h): 0.9 g
- KIDNEY_R (6 h): 0.9 g
- KIDNEY_TOTAL (6 h): 1.9 g
- LIVER (6 h): 8.6 g
- A/G (6 h): 0.9
- ALP (6 h): 1304.6 IU/L
- ALT (6 h): 34.4 IU/L
- AST (6 h): 72.2 IU/L
- BUN (6 h): 9 mg/dL
- CRE (6 h): 0.2 mg/dL
- Ca (6 h): 10.5 mg/dL
- Cl (6 h): 108.2 meq/L
- DBIL (6 h): 0.002 mg/dL
- GLC (6 h): 176.4 mg/dL
- IP (6 h): 8.9 mg/dL
- K (6 h): 4.2 meq/L
- LDH (6 h): 109.8 IU/L
- Na (6 h): 140.6 meq/L
- PL (6 h): 145.4 mg/dL
- RALB (6 h): 2.5 g/dL
- TBIL (6 h): 0.064 mg/dL
- TC (6 h): 83 mg/dL
- TG (6 h): 49.6 mg/dL
- TP (6 h): 5.4 g/dL
- gamma-GTP (6 h): 1.4 IU/L
- TERMINAL_BW (9 h): 205.5 g
- APTT (9 h): 19.5 s
- Bas (9 h): 0%
- Eos (9 h): 0.8%
- Fbg (9 h): 276.8 mg/dL
- Hb (9 h): 13.5 g/dL
- Ht (9 h): 40.8%
- Lym (9 h): 75.2%
- MCH (9 h): 20.9 pg
- MCHC (9 h): 33%
- MCV (9 h): 63.4 fL
- Mono (9 h): 2.2%
- Neu (9 h): 21.4%
- PT (9 h): 13.7 s
- Plat (9 h): 114.8 x10_4/uL
- RBC (9 h): 642.8 x10_4/ul
- Ret (9 h): 7.6%
- WBC (9 h): 82.3 x10_2/uL
- KIDNEY_L (9 h): 0.9 g
- KIDNEY_R (9 h): 0.9 g
- KIDNEY_TOTAL (9 h): 1.7 g
- LIVER (9 h): 7.9 g
- A/G (9 h): 0.9
- ALP (9 h): 1637 IU/L
- ALT (9 h): 38 IU/L
- AST (9 h): 77 IU/L
- BUN (9 h): 9.6 mg/dL
- CRE (9 h): 0.2 mg/dL
- Ca (9 h): 10.5 mg/dL
- Cl (9 h): 108 meq/L
- DBIL (9 h): 0.002 mg/dL
- GLC (9 h): 176.6 mg/dL
- IP (9 h): 9.7 mg/dL
- K (9 h): 3.9 meq/L
- LDH (9 h): 76.4 IU/L
- Na (9 h): 141.4 meq/L
- PL (9 h): 133.6 mg/dL
- RALB (9 h): 2.5 g/dL
- TBIL (9 h): 0.064 mg/dL
- TC (9 h): 72.8 mg/dL
- TG (9 h): 31.2 mg/dL
- TP (9 h): 5.4 g/dL
- gamma-GTP (9 h): 1.2 IU/L
- TERMINAL_BW (24 h): 223.7 g
- APTT (24 h): 17.1 s
- Bas (24 h): 0%
- Eos (24 h): 1%
- Fbg (24 h): 254 mg/dL
- Hb (24 h): 13.1 g/dL
- Ht (24 h): 39.5%
- Lym (24 h): 77.2%
- MCH (24 h): 21.8 pg
- MCHC (24 h): 33%
- MCV (24 h): 66.1 fL
- Mono (24 h): 3%
- Neu (24 h): 18.2%
- PT (24 h): 13.3 s
- Plat (24 h): 113.7 x10_4/uL
- RBC (24 h): 598 x10_4/ul
- Ret (24 h): 7.3%
- WBC (24 h): 99.1 x10_2/uL
- KIDNEY_L (24 h): 1 g
- KIDNEY_R (24 h): 0.9 g
- KIDNEY_TOTAL (24 h): 1.9 g
- LIVER (24 h): 10.4 g
- A/G (24 h): 0.9
- ALP (24 h): 1802.2 IU/L
- ALT (24 h): 47.2 IU/L
- AST (24 h): 74.8 IU/L
- BUN (24 h): 15 mg/dL
- CRE (24 h): 0.2 mg/dL
- Ca (24 h): 10.9 mg/dL
- Cl (24 h): 104.8 meq/L
- DBIL (24 h): 0.01 mg/dL
- GLC (24 h): 165.4 mg/dL
- IP (24 h): 7.8 mg/dL
- K (24 h): 4 meq/L
- LDH (24 h): 82 IU/L
- Na (24 h): 142.8 meq/L
- PL (24 h): 161 mg/dL
- RALB (24 h): 2.6 g/dL
- TBIL (24 h): 0.056 mg/dL
- TC (24 h): 85.6 mg/dL
- TG (24 h): 92.2 mg/dL
- TP (24 h): 5.6 g/dL
- gamma-GTP (24 h): 1 IU/L
